Laboratory results as given in US12404232B2, “Compounds and compositions for intracellular delivery of therapeutic agents” (ModernaTX, Inc., priority 2015, dated 2025).

Key:
mice [1] = assay: Luc expression (total flux) after intramuscular administration; type: in vivo; details: i.m., Luc, 6 h
[2] = Particle size and polydispersity index of nanoparticle compositions (Zetasizer Nano ZS); type: physicochemical; details: for PDI: nanoparticle composition 50:10:38.5:1.5 mol % (Table 1A)
How it was run: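 Particle size and PDI by Zetasizer Nano ZS dynamic light scattering in 1×PBS. Lipid nanoparticles carried mRNA (luciferase or hEPO) with ionizable lipid:DSPC:cholesterol:PEG-DMG at 50:10:38.5:1.5 mol %.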

[3] = Encapsulation of RNA by the nanoparticle composition (QUANT-IT RIBOGREEN RNA assay); type: physicochemical
Description: The efficiency of encapsulation of a therapeutic and/or prophylactic describes the amount of therapeutic and/or prophylactic that is encapsulated or otherwise associated with a nanoparticle composition after preparation, relative to the initial amount provided. The encapsulation efficiency is desirably high (e.g., close to 100%). The encapsulation efficiency may be measured, for example, by comparing the amount of therapeutic and/or prophylactic in a solution containing the nanoparticle composition before and after breaking up the nanoparticle composition with one or more organic solvents or detergents. Fluorescence may be used to measure the amount of free therapeutic and/or prophylactic (e.g., RNA) in a solution. For the nanoparticle compositions described herein, the encapsulation efficiency of a therapeutic and/or prophylactic may be at least 50%, for example 50%, 55%, 60%, 65%, 70%, 75%, 80%, 85%, 90%, 91%, 92%, 93%, 94%, 95%, 96%, 97%, 98%, 99%, or 100%. In some embodiments, the encapsulation efficiency may be at least 80%. In certain embodiments, the encapsulation efficiency may be at least 90%.
For nanoparticle compositions including an RNA, a QUANT-IT™ RIBOGREEN® RNA assay (Invitrogen Corporation Carlsbad, CA) can be used to evaluate the encapsulation of an RNA by the nanoparticle composition. The samples are diluted to a concentration of approximately […] in a TE buffer solution (10 mM Tris-HCl, 1 mM EDTA, pH 7.5). 50 μL of the diluted samples are transferred to a polystyrene 96 well plate and either 50 μL of TE buffer or 50 μL of a 2% Triton X-100 solution is added to the wells. The plate is incubated at a temperature of 37° C. for 15 minutes. The RIBOGREEN® reagent is diluted 1:100 in TE buffer, and 100 μL of this solution is added to each well. The fluorescence intensity can be measured using a fluorescence plate reader (Wallac Victor 1420 Multilablel Counter; Perkin Elmer, Waltham, MA) at an excitation wavelength of, for example, about 480 nm and an emission wavelength of, for example, about 520 nm. The fluorescence values of the reagent blank are subtracted from that of each of the samples and the percentage of free RNA is determined by dividing the fluorescence intensity of the intact sample (without addition of Triton X-100) by the fluorescence value of the disrupted sample (caused by the addition of Triton X-100).
Initial studies were performed to compare the delivery efficiency of nanoparticle compositions including various compounds according to Formula (I), (IA), (II), (IIa), (IIb), (IIc), (IId) or (IIe). The cationic lipid MC3 is a current standard in the art. Accordingly, the standard MC3 formulation including about 50 mol % MC3, about 10 mol % DSPC, about 38.5 mol % cholesterol, and about 1.5 mol % PEG-DMG was used as a basis for this study. Nanoparticle compositions including DSPC as a phospholipid, cholesterol as a structural lipid, PEG-DMG as a PEG lipid, an RNA, and a compound according to Formula (I), (IA), (II), (IIa), (IIb), (IIc), (IId) or (IIe) selected from Compounds 1-159, 168-170, and 173-175 were prepared according to or via methods similar to those described in Examples 1 and 2. The ratios of the lipids were 50:10:38.5:1.5 mol % for the lipid according to Formula (I), (IA), (II), (IIa), (IIb), (IIc), (IId) or (IIe):DSPC:cholesterol:PEG-DMG. The RNA used was an mRNA encoding G5 luciferase (Luc) or G5 hEPO. Tables 1A-1B summarize the content and characteristics of the formulations. […]

mice [4] = assay: Cytokine induction (IL-6, IP-10) in mice after intravenous administration; type: in vivo; set-up: IL-6 / IP-10: unit not given here; details: 0.5 mpk; for IL-6 / IP-10: 6 hours
Description: The introduction of foreign material into a mammalian body induces an innate immune response that promotes cytokine production. Such immune responses to, for example, nanoparticle compositions including therapeutic and/or prophylactics, are undesirable. The induction of certain cytokines is thus measured to evaluate the […] of nanoparticle compositions. The concentrations of various cytokines in mice upon intravenous administration of nanoparticle compositions presented in Table 1A at a dosage of 0.5 mpk was measured at 6 hours. The standard MC3 formulation and a PBS control were also tested. As is evident in Table 7, IL-6 induction was highest for compositions including Compounds 1, 3, 9, 19, and 26, while IP-10 induction was highest for compositions including Compounds 3, 4, 7, 20, and 26. IL-6 induction was lowest for compositions including Compounds 4, 11, 12, and 28. IP-10 induction was lowest for compositions including Compounds 10, 11, 12, 13, 15, 17, and 18.
(§1) The expression of hEPO and cytokine induction in mice intravenously administered a nanoparticle composition at a dose of 0.5 mpk were measured at 3, 6, and 24 hours. […] The expression of hEPO in mice intramuscularly administered a nanoparticle composition from Table 1B at a dose of 0.01 mpk were measured at 3, 6, and 24 hours. […] (see also FIG. 9.)

mice [5] = assay: Luc expression (bioluminescence, total flux) after intravenous administration to mice; type: in vivo; details: Luc total flux (Table 3D)
Method: In order to monitor how effectively various nanoparticle compositions deliver therapeutic and/or prophylactics to targeted cells, different nanoparticle compositions including a particular therapeutic and/or prophylactic (for example, a modified or naturally occurring RNA such as an mRNA) are prepared and administered to rodent populations. Mice are intravenously, intramuscularly, intraarterially, or intratumorally administered a single dose including a nanoparticle composition with a formulation such as those provided in Example 3. In some instances, mice may be made to inhale doses. Dose sizes may range from 0.001 mg/kg to 10 mg/kg, where 10 mg/kg describes a dose including 10 mg of a therapeutic and/or prophylactic in a nanoparticle composition for each 1 kg of body mass of the mouse. A control composition including PBS may also be employed.
Upon administration of nanoparticle compositions to mice, dose delivery profiles, dose responses, and toxicity of particular formulations and doses thereof can be measured by enzyme-linked immunosorbent assays (ELISA), bioluminescent imaging, or other methods. For nanoparticle compositions including mRNA, time courses of protein expression can also be evaluated. Samples collected from the rodents for evaluation may include blood, sera, and tissue (for example, muscle tissue from the site of an intramuscular injection and internal tissue); sample collection may involve sacrifice of the animals.
The efficacy of the nanoparticle compositions presented in Table 1A was evaluated with a bioluminescence study. Formulations were administered intravenously to mice (n=6) at a dosage of 0.5 mg/kg (mpk) and bioluminescence measured at 3, 6, and 24 hour time points. The standard MC3 formulation and, in some instances, a control (e.g., a PBS control) were evaluated for comparison. […] In general, flux decreased as time progressed to less than 10% of the initial flux.
The total flux (measured by area under the curve, AUC) induced by administration of a formulation including a given lipid relative to that induced by administration of a formulation including MC3 was also measured for several lipids.
The tolerability and efficacy of nanoparticle compositions to non-human primates was also investigated using sample formulations including Compounds 18, 25, 26, and 48 and MC3 to determine if these compounds are differentiated in terms of protein expression. The formulations were prepared according to the standard MC3 formulation described above and included an hEPO mRNA. Table 30 includes details of the compositions tested, while Table 31 summarizes the relative expression of Luc and hEPO mRNA in mice and rats. Expression was measured 6 hours after administration.

mice [6] = assay: hEPO expression in mice after intravenous administration; type: in vivo
Method: Sample formulations of nanoparticle compositions including different lipids are generally first evaluated according to Luc expression in vivo. The activity of several such compositions was further evaluated using an mRNA encoding hEPO. Nanoparticle compositions including Compounds 6, 18, 25, 30, 108-112, 60, and 122, or MC3 were prepared according to Example 2.
as §1
Table 12 compares the nanoparticle compositions including compounds according to Formula (I), (IA), (II), (IIa), (IIb), (IIc), (IId) or (IIe) to the compositions including MC3 on the basis of expression and flux levels. […] Thus, these lipids may be useful in nanoparticle composition therapeutics. […]

[7] = nanoparticle composition lipid:DSPC:cholesterol:PEG-DMG 50:10:38.5:1.5 mol %, mRNA encoding Luc or hEPO (Table 1A)
[8] = nanoparticle composition 50:10:38.5:1.5 mol % (Table 1A)

| PDI [2] | Size (nm) [2, 7] [nm] | EE (%) [3, 8] [%] | Structure (SMILES) | i.m. Lipid/MC3 0.01 mpk, Luc, 6h (mice [1]) | further results |
| --- | --- | --- | --- | --- | --- |
| 0.18 | 75.4 | – | CCCCCCCCCOC(=O)CCCCCCCN(CCCCCCCC(=O)OC(CCCCCCCC)CCCCCCCC)CCCNc1c(N(C)C)c(=O)c1=O [Compound 169, Heptadecan-9-yl 8-((3-((2-(dimethylamino)-3,4-dioxocyclobut-1-en-1-yl)amino)propyl)(8-(nonyloxy)-8-oxooctyl)amino)octanoate] | 3.3 | – |
| – | – | – | CCCCCCCCCOC(=O)CCCCCCCN(CCCCCCCC(=O)OC(CCCCCCCC)CCCCCCCC)CCCNS(C)(=O)=O [Compound 109, Heptadecan-9-yl 8-((3-(methylsulfonamido)propyl)(8-(nonyloxy)-8-oxooctyl)amino)octanoate] | 3.6 | – |
| 0.12 | 61.4 | – | CCCCCCCCCOC(=O)CCCCCCCN(CCCCCCCC(=O)OC(CCCCCCCC)CCCCCCCC)CCCN1C(=O)CNC1=O [Compound 174, Heptadecan-9-yl 8-((3-(2,5-dioxoimidazolidin-1-yl)propyl)(8-(nonyloxy)-8-oxooctyl)amino)octanoate] | 0.2 | – |
| 0.2 | 65.4 | 93.23 | CCCCCCCCCOC(=O)CCCCCCCN(CCCCCCCC(=O)OC(CCCCCCCC)CCCCCCCC)CCCOC(=O)NC [Compound 175, Heptadecan-9-yl 8-((3-((methylcarbamoyl)oxy)propyl)(8-(nonyloxy)-8-oxooctyl)amino)octanoate] | 0.1 | – |
| 0.19 | 93.3 | 96.4 | CCCCCCCCCOC(=O)CCCCCCCN(CCO)CCCCCCC(=O)OCC(CCCCCCCC)CCCCCCCC [Compound 143, Nonyl 8-((2-hydroxyethyl)(7-((2-octyldecyl)oxy)-7-oxoheptyl)amino)octanoate] | – | IL-6 (mice [4]): 6.245; IP-10 (mice [4]): 209.63 |
| 0.14 | 79.3 | – | CCCCCCCCCOC(=O)CCCCCCCN(CCCCCCCC(=O)OC(CCCCCCCC)CCCCCCCC)CCCNC(=S)N(C)C [Compound 111, Heptadecan-9-yl 8-((3-(3,3-dimethylthioureido)propyl)(8-(nonyloxy)-8-oxooctyl)amino)octanoate] | 4.9 | – |
| 0.096 | 69.6 | 96.43 | CCCCCCCCCOC(=O)CCCCCCCN(CCCCCCCC(=O)OC(CCCCCCCC)CCCCCCCC)C(C)CO (stereo not shown) [Compound 157, Heptadecan-9-yl 8-((1-hydroxypropan-2-yl)(8-(nonyloxy)-8-oxooctyl)amino)octanoate] | – | AUC (p/s*h) (mice [5]): 2.481E+011 p/s*h |
| 0.12 | 71.7 | – | CCCCCCCCCOC(=O)CCCCCCCN(CCCCCCCC(=O)OC(CCCCCCCC)CCCCCCCC)CCCN/C(=C/[N+](=O)[O-])NC [Compound 170, Heptadecan-9-yl (E)-8-((3-((1-(methylamino)-2-nitrovinyl)amino)propyl)(8-(nonyloxy)-8-oxooctyl)amino)octanoate] | 5.3 | – |
| – | – | – | CCCCCCCCCOC(=O)CCCCCCCN(CCCCCCCC(=O)OC(CCCCCCCC)CCCCCCCC)CCCN(C)S(C)(=O)=O [Compound 173, Heptadecan-9-yl 8-((3-(N-methylmethylsulfonamido)propyl)(8-(nonyloxy)-8-oxooctyl)amino)octanoate] | 0.6 | – |
| – | – | – | CCCCC/C=C\C/C=C\CCCCCCCCN(CCO)CCCCCCCC(=O)OC(CCCCCCCC)CCCCCCCC [Compound 6, Heptadecan-9-yl 8-((2-hydroxyethyl)((9Z,12Z)-octadeca-9,12-dien-1-yl)amino)octanoate] | – | Size (nm) ([2]; hEPO mRNA, lipid:DSPC:Chol:PEG-DMG (50:10:38.5:1.5) (Table 10)): 70.5 nm; IL-6 (mice [4]): 136.18; IP-10 (mice [4]): 316.01; Cytokine expression (pg/ml) IL-6 (6 h) (mice [4]; hEPO mRNA, 6 h): 10.15 pg/mL; Cytokine expression (pg/ml) IP-10 (6 h) (mice [4]; hEPO mRNA, 6 h): 116.66 pg/mL; hEPO concentrations compared with MC3 formulations at each time point (mice [6]; 0.5 mpk, 3, 6 and 24 hours): higher hEPO concentrations than MC3 formulations; hEPO expression (pg/ml) 3h (mice [6]; 0.5 mpk, 3 h): 2.31e+06 pg/mL; hEPO expression (pg/ml) 6 h (mice [6]; 0.5 mpk, 6 h): 3.17e+06 pg/mL; hEPO expression (pg/ml) 24 h (mice [6]; 0.5 mpk, 24 h): 1.11e+06 pg/mL; EE (%) ([3]; hEPO mRNA, (50:10:38.5:1.5) (Table 10)): 97.84% |
